Consider 21 compounds from US9815796B2 (Merck Sharp & Dohme Corp., priority 2013, dated 2017).

In one experiment the target is Rhesus PDE2A3 (Macaca mulatta, UniProt B3VTJ2). Description: PDE2 fluorescence polarization (IMAP FP) inhibition assay, rhesus enzyme. Type of experiment: biochemical, rhesus macaque. In a few lines: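 IMAP FP (mP from parallel and perpendicular fluorescence against substrate-only control) was read ≥1 h after adding binding reagent. The preceding 60 min room-temperature reaction contained FAM-cAMP (50 nM) and cGMP (1 uM) in pH 7.2 Tris buffer with MgCl2 and DTT. Enzyme was supernatant of sonicated AD293 cells expressing rhesus PDE2A3; compounds were 3-fold titrated, DMSO 1% final.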
Sequence of Rhesus PDE2A3 (B3VTJ2 1-941): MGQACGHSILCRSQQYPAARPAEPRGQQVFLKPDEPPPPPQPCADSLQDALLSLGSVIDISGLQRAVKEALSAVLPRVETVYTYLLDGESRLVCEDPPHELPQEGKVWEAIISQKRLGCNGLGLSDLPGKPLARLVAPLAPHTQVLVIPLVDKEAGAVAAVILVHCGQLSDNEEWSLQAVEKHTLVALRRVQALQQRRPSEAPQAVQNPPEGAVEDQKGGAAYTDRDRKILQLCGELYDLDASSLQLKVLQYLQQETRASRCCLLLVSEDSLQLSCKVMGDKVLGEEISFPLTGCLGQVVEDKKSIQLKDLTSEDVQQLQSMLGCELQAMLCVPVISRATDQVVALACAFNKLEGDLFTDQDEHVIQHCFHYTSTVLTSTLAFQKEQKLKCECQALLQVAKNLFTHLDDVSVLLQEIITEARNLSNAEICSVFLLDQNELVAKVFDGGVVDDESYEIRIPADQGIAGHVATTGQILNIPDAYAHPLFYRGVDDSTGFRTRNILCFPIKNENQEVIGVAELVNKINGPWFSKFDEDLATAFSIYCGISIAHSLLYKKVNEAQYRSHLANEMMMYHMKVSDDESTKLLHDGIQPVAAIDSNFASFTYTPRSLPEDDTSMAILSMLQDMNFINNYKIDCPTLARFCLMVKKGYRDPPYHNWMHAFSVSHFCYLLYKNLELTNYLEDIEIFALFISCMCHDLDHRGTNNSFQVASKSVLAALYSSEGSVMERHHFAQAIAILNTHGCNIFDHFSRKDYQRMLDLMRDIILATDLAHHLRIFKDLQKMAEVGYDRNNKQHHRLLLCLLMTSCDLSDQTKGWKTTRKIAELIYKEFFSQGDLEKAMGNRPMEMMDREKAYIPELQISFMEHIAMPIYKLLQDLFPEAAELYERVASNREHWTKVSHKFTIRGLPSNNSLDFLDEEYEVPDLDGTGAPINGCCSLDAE
For orientation: Fluorescence polarisation rises when a labelled molecule tumbles more slowly, as on binding a larger partner.

A further experiment has as its target human PDE2A1 (Homo sapiens (Human), UniProt O00408). Description: IMAP FP PDE selectivity panel, human PDE2A1. Format: biochemical. The method, boiled down: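 IMAP FP format: substrate 50 nM FAM-cAMP plus 1000 nM cGMP, enzyme (insect-cell GST-tagged human PDE2A1) at ~20% conversion, 60 min reaction at room temperature. Apparent inhibition constants calculated from parallel/perpendicular fluorescence with KM 10,000 nM.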

Setting [1] is: Rhesus PDE2, Lab B, read-out: Rhesus PDE2 Ki (nM) - Lab B.
Setting [2] is: Human PDE2, Lab B, read-out: Human PDE2 Ki (nM) - Lab B.
Setting [3] is: Rhesus PDE2, Lab A, read-out: Rhesus PDE2 Ki (nM) - Lab A.
[4] abbreviates: Human PDE2, Lab A, read-out: Human PDE2 Ki (nM) - Lab A.

Like-named read-outs stand apart in the source and are kept apart here.

Sequence of human PDE2A1 (O00408 other isoform, or with tags, fused parts or gaps): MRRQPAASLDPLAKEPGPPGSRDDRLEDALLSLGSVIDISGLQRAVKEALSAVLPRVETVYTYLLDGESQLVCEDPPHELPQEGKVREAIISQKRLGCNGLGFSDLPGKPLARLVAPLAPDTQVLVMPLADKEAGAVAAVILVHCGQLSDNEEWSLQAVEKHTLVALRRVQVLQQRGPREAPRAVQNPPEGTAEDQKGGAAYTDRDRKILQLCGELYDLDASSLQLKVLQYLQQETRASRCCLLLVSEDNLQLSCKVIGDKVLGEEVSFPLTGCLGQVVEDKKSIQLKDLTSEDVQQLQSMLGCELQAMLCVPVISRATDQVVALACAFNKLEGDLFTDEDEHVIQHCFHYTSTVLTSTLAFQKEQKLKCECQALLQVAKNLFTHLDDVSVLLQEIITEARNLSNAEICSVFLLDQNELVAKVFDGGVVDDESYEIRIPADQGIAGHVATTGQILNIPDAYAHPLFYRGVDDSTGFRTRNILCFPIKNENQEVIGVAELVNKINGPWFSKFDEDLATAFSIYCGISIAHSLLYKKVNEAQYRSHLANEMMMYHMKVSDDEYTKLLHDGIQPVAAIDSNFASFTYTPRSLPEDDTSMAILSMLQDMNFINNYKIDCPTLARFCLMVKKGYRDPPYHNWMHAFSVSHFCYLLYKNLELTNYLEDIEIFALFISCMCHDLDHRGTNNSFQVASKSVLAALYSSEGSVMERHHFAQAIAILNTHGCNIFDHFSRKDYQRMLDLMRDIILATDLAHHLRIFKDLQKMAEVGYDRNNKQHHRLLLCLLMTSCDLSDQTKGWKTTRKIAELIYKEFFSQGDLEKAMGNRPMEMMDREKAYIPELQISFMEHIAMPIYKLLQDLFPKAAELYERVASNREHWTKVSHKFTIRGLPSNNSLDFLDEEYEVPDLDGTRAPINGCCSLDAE

Consider `CC(C)(C)[C@@H](NC(=O)c1cc(=O)[nH]c(-c2ncccn2)n1)c1ccc(OC(F)F)cc1` [Example 450, N-{(1R)-1-[4-(difluoromethoxy)phenyl]-2,2-dimethylpropyl}-6-oxo-1,6-dihydro-2,2′-bipyrimidine-4-carboxamide], for which the Ki came to 23 nM on Rhesus PDE2A3 (setting [1]) and 21 nM at human PDE2A1 (setting [2]).

For the compound `CC(NC(=O)c1cc(=O)[nH]c(-c2ccccc2)n1)c1ccc(C(F)(F)F)cn1` (stereo not shown) [Example 149, 6-oxo-2-phenyl-N-{1-[5-(trifluoromethyl)pyridin-2-yl]ethyl}-1,6-dihydropyrimidine-4-carboxamide], the Ki was determined as 204 nM at Rhesus PDE2A3 (setting [3]) and 117 nM on human PDE2A1 (setting [4]).

As for `COc1ccc(Cc2nc(C(=O)N[C@@H](c3ccc(SC(F)(F)F)cc3)C3CC3)cc(=O)[nH]2)cc1F` [Example 523, N-[(R)-cyclopropyl{4-[(trifluoromethyl)sulfanyl]phenyl}methyl]-2-(3-fluoro-4-methoxybenzyl)-6-oxo-1,6-dihydropyrimidine-4-carboxamide], the Ki at Rhesus PDE2A3 (setting [1]) worked out at 2.8 nM; at human PDE2A1 (setting [2]), 2.1 nM.

As to `C[C@@H](NC(=O)c1cc(=O)[nH]c(C2CC2)n1)c1ccc(SC(F)(F)F)c(F)c1` [Example 243, 2-cyclopropyl-N-[(1R)-1-{3-fluoro-4-[(trifluoromethyl)sulfanyl]phenyl}ethyl]-6-oxo-1,6-dihydropyrimidine-4-carboxamide], the Ki turned out to be 3.6 nM on Rhesus PDE2A3 (setting [3]), 6.7 nM at Rhesus PDE2A3 (setting [1]) and 5.8 nM at human PDE2A1 (setting [2]).

For the compound `Cc1nc(C(=O)N[C@@H](c2ccc(SC(F)(F)F)cc2)C(C)(C)C)cc(=O)[nH]1` [Example 58, (R)-N-(2,2-dimethyl-1-(4-((trifluoromethyl)thio)phenyl)propyl)-2-methyl-6-oxo-1,6-dihydropyrimidine-4-carboxamide], the results for the Ki at Rhesus PDE2A3 (setting [1]) and at human PDE2A1 (setting [2]) were 2.5 nM and 1.7 nM, respectively.

`Cc1nc(C(=O)N[C@H](C)c2cc(F)c(C(F)(F)F)c(F)c2)cc(=O)[nH]1` [Example 26, N-{(1R)-[3,5-difluoro-4-(trifluoromethyl)phenyl]ethyl}-2-methyl-6-oxo-1,6-dihydropyrimidine-4-carboxamide]: the Ki at Rhesus PDE2A3 (setting [3]) turned out to be 231 nM; on human PDE2A1 (setting [4]), 104 nM.

Consider `O=C(N[C@@H](c1ccc(S(F)(F)(F)(F)F)cc1)C1CC1)c1cc(=O)[nH]c(C2CC2)n1` [Example 397, 2-cyclopropyl-N-{(R)-cyclopropyl[4-(pentafluoro-λ^6-sulfanyl)phenyl]methyl}-6-oxo-1,6-dihydropyrimidine-4-carboxamide], for which the figures for the Ki at Rhesus PDE2A3 (setting [1]) and at human PDE2A1 (setting [2]) were 8.2 nM and 8.6 nM, respectively.

Regarding `C[C@@H](NC(=O)c1cc(=O)[nH]c(C2CC2)n1)c1ccc(C(F)(F)F)c(F)c1` [Example 234, 2-cyclopropyl-N-{(1R)-1-[3-fluoro-4-(trifluoromethyl)phenyl]ethyl}-6-oxo-1,6-dihydropyrimidine-4-carboxamide], the Ki at Rhesus PDE2A3 (setting [3]) is 20 nM; at human PDE2A1 (setting [4]), 18 nM.

For the compound `COc1ccc(Cc2nc(C(=O)N[C@@H](c3ccc(OC(F)(F)F)c(F)c3)C(C)(C)C)cc(=O)[nH]2)cc1` [Example 464, N-{(1R)-1-[3-fluoro-4-(trifluoromethoxy)phenyl]-2,2-dimethylpropyl}-2-(4-methoxybenzyl)-6-oxo-1,6-dihydropyrimidine-4-carboxamide], the results for the Ki on Rhesus PDE2A3 (setting [1]) and on human PDE2A1 (setting [2]) were 0.6 nM and 0.69 nM, respectively.

Take `CC(C)[C@@H](NC(=O)c1cc(=O)[nH]c(-c2ccccc2)n1)c1ccc(C(F)(F)F)cc1` [Example 167, N-{(1R)-2-methyl-1-[4-(trifluoromethyl)phenyl]propyl}-6-oxo-2-phenyl-1,6-dihydropyrimidine-4-carboxamide]: the Ki on Rhesus PDE2A3 (setting [3]) was 2.3 nM; at Rhesus PDE2A3 (setting [1]) it was 3.5 nM; at human PDE2A1 (setting [4]) it was 1.9 nM; at human PDE2A1 (setting [2]), 2.3 nM.

For `CC[C@@H](NC(=O)c1cc(=O)[nH]c(-c2ccccc2)n1)c1ccc(SC(F)(F)F)c(F)c1` [Example 385, N-[(1R)-1-{3-fluoro-4-[(trifluoromethyl)sulfanyl]phenyl}pro-pyl]-6-oxo-2-phenyl-1,6-dihydropyrimidine-4-carboxamide], the results for the inhibition constant (Ki) on Rhesus PDE2A3 (setting [1]) and on human PDE2A1 (setting [2]) were 7 nM and 4.4 nM, respectively.

As to `Cc1nc(C(=O)N[C@H](C)c2ccc3ccccc3c2)cc(=O)[nH]1` [Example 16, 2-methyl-N-[(1R)-1-naphthalen-2-ylethyl]-6-oxo-1,6-dihydropyrimidine-4-carboxamide], the results for the Ki on Rhesus PDE2A3 (setting [3]) and on human PDE2A1 (setting [4]) were 74 nM and 67 nM, respectively.

Turning to `CC(NC(=O)c1cc(=O)[nH]c(-c2ccccc2)n1)c1ccc(C(F)(F)F)cc1Cl` (stereo not shown) [Example 147, N-{1-[2-chloro-4-(trifluoromethyl)phenyl]ethyl}-6-oxo-2-phenyl-1,6-dihydropyrimidine-4-carboxamide], the Ki at Rhesus PDE2A3 (setting [3]) stood at 51 nM; on human PDE2A1 (setting [4]), 35 nM.

For `O=C(NC1(c2ccc(C(F)(F)F)cc2)CC1)c1cc(=O)[nH]c(-c2ncccn2)n1` [Example 284, 6-oxo-N-{1-[4-(trifluoromethyl)phenyl]cyclopropyl}-1,6-dihydro-2,2′-bipyrimidine-4-carboxamide], the Ki on Rhesus PDE2A3 (setting [3]) is 43 nM; at human PDE2A1 (setting [4]), 36 nM.

In the case of `CC(C)(NC(=O)c1cc(=O)[nH]c(-c2ncccn2)n1)c1ccc(C(F)(F)F)cc1` [Example 288, N-{1-methyl-1-[4-(trifluoromethyl)phenyl]ethyl}-6-oxo-1,6-dihydro-2,2′-bipyrimidine-4-carboxamide], the Ki on Rhesus PDE2A3 (setting [3]) came out at 152 nM; on human PDE2A1 (setting [4]) it was 123 nM.

With `O=C(NC1(c2ccc(C(F)(F)F)cc2)CC1)c1cc(=O)[nH]c(-c2ccccc2)n1` [Example 276, 6-oxo-2-phenyl-N-{1-[4-(trifluoromethyl)phenyl]cyclopropyl}-1,6-dihydropyrimidine-4-carboxamide], the Ki at Rhesus PDE2A3 (setting [3]) was 4.2 nM; at human PDE2A1 (setting [4]), 3.8 nM.

As to `CC1(c2ccc(C(NC(=O)c3cc(=O)[nH]c(-c4ncccn4)n3)C(C)(C)C)cc2F)CC1` (single isomer, unassigned) [Example 717, (R)- or (S)-N-(1-(3-fluoro-4-(1-methylcyclopropyl)phenyl)-2,2-dimethylpropyl)-6-oxo-1,6-dihydro-[2,2′-bipyrimidine]-4-carboxamide], the Ki is 17 nM on Rhesus PDE2A3 (setting [1]) and 14 nM at human PDE2A1 (setting [2]).

`Cc1nc(C(=O)NC(CO)c2ccc(C(F)(F)F)cc2)cc(=O)[nH]1` (single isomer, unassigned) [Example 312, (R)- or (S)-N-{2-hydroxy-1-[4-(trifluoromethyl)phenyl]ethyl}-2-methyl-6-oxo-1,6-dihydropyrimidine-4-carboxamide]: the inhibition constant Ki on Rhesus PDE2A3 (setting [3]) turned out to be 71 nM; at human PDE2A1 (setting [4]), 41 nM; on human PDE2A1 (setting [2]), 52 nM.

As for `O=C(NC(CCO)c1ccc(C(F)(F)F)cc1)c1cc(=O)[nH]c(-c2ccccc2)n1` (stereo not shown) [Example 421, N-{3-hydroxy-1-[4-(trifluoromethyl)phenyl]propyl}-6-oxo-2-phenyl-1,6-dihydropyrimidine-4-carboxamide], the Ki at Rhesus PDE2A3 (setting [1]) came to 14 nM; at human PDE2A1 (setting [2]), 9.4 nM.

Take `CCc1nc(C(=O)NC2(c3ccc(OC(F)(F)F)c(F)c3)CC2)cc(=O)[nH]1` [Example 602]: the results for the Ki at Rhesus PDE2A3 (setting [1]) and at human PDE2A1 (setting [2]) were 5.2 nM and 4.2 nM, respectively.

As for `COCc1nc(C(=O)N[C@H](C)c2ccc(C(C)C)cc2)cc(=O)[nH]1` [Example 122, 2-(methoxymethyl)-N-{(1R)-1-[4-(1-methylethyl)phenyl]ethyl}-6-oxo-1,6-dihydropyrimidine-4-carboxamide], the values for the Ki at Rhesus PDE2A3 (setting [3]) and at human PDE2A1 (setting [4]) were 152 nM and 38 nM, respectively.

What is called Ki is a dissociation constant, usually derived from enzyme kinetics or from competition with a known ligand.
